Ten compounds from patent EP0622356A1, “Indoloylguanidine derivatives as inhibitors of sodium-hydrogen exchange” (SUMITOMO PHARMACEUTICALS COMPANY, LIMITED, priority 1993, dated 1994) can be followed below.

Counter-ions that a name gives are not always drawn. Like-named read-outs stand apart in the source and are kept apart here.

Assay [1] concerns the target T1, Na⁺/H⁺ exchanger (Rattus norvegicus, UniProt P26431).
T1 construct: using the vascular smooth muscle cells isolated from the rat thoracic aorta; endogenous in cells; host or cells: primary vascular smooth muscle cells isolated from rat thoracic aorta
Kind of assay: Inhibition of Na⁺/H⁺ exchanger activity in vitro (change in intracellular pH during acid loading). The class given is cell-based. As to the method: That is, inhibition of the Na⁺/H⁺ exchanger activity was evaluated by the change in intracellular pH during acid loading, using the vascular smooth muscle cells isolated from the rat thoracic aorta.

Assay [2] addresses T1, Na⁺/H⁺ exchanger. Put plainly: Inhibition of Na⁺/H⁺ exchanger activity in vitro (change in cell viability during acid loading). The note with it: minimum effective concentration, vascular smooth muscle cells isolated from the rat thoracic aorta. The class given is cell-based. As to the method:
The experiment was performed by modifying the method of Mungre et al. described in Exp. Cell Res., 193, 236 (1991). That is, inhibition of the Na⁺/H⁺ exchanger activity was evaluated by the change in cell viability during acid loading, using the vascular smooth muscle cells isolated from the rat thoracic aorta.
The compounds of the present invention shown in Examples were evaluated by the minimum effective concentration (MEC) for the inhibition of the Na⁺/H⁺ exchanger activity.

Assay [3] has as its system arrhythmia induced by reperfusion after rat coronary artery occlusion. Put plainly: Inhibition of ischemia- and reperfusion-induced arrhythmia in vivo.
Method: The experiment was performed by modifying the method of Crome et al. described in J. Cardiovasc. […] That is, the prevention of arrhythmia induced by reperfusion after rat coronary artery occlusion was evaluated by the incidence of ventricular tachycardia and ventricular fibrillation as well as the mortality.
[4] abbreviates: vascular smooth muscle cells isolated from the rat thoracic aorta, change in intracellular pH during acid loading, read-out: IC₅₀.

T1 sequence (P26431 whole entry): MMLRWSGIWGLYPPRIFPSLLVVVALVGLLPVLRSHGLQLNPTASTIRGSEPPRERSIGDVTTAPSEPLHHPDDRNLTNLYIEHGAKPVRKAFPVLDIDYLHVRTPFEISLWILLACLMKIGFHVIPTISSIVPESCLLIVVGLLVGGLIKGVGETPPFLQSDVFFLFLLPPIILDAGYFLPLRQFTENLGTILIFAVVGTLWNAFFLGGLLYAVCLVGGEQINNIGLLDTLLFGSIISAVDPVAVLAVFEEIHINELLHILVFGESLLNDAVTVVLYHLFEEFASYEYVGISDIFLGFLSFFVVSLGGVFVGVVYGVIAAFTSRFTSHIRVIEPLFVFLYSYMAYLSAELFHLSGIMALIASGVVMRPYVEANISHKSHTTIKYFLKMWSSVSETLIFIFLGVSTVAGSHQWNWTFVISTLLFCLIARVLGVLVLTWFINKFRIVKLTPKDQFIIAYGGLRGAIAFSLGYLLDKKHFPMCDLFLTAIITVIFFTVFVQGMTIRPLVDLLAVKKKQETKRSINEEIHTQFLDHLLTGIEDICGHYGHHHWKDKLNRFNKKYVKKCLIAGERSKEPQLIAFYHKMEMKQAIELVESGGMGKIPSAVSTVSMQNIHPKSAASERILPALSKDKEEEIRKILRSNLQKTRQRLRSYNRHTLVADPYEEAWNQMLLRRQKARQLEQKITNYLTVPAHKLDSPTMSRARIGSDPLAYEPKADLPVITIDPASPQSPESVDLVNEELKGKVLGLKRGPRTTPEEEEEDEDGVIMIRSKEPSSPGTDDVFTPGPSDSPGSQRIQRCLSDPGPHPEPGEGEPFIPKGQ

`Cn1c(C(=O)N=C(N)N)cc2c(Cl)ccc(OCCCN)c21` [Example 118, 7-(3-Aminopropoxy)-4-chloro-1-methyl-2-indoloylguanidine hydrochloride]: the IC50 in assay [1] (setting [4]) amounted to 10 nM.

On to `CN(C)c1nc(N)c(C(=O)N=C(N)N)nc1Cl` [Dimethyl amiloride, reference compound], for which, in assay [2], the “Inhibition of Na^+/H^+ Exchanger MEC” value is listed as 3.0 µM. Moreover, in assay [1], the IC50 is 600 nM.

As for `Cn1c(C(=O)N=C(N)N)cc2c(C(F)(F)F)cccc21` [Example 29, 1-Methyl-4-trifluoromethyl-2-indoloylguanidine hydrochloride], the IC50 in assay [1] (setting [4]) amounted to 0.9 nM.

As to `COc1cccc2c1cc(C(=O)N=C(N)N)n2C` [Example 22, 4-Methoxy-1-methyl-2-indoloylguanidine hydrochloride], the IC50 in assay [1] (setting [4]) came out at 2100 nM.

On to `NC(N)=NC(=O)c1nc(Cl)c(N2CCCCCC2)nc1N` [5-Hexamethylene amiloride, reference compound], for which the “Inhibition of Na^+/H^+ Exchanger MEC” value in assay [2] was 0.3 µM. Besides, in assay [1] (setting [4]), the IC50 was found to be 140 nM.

Consider `CCN(c1nc(N)c(C(=O)NC(=N)N)nc1Cl)C(C)C` [EIPA, 5-N-ethyl-N-isopropyl amiloride, reference compound], for which, in assay [3] (dose 0.3 mg/kg), the “Incidence of Ventricular Fibrillation” value was 56%, the “Incidence of Ventricular Tachycardia” value came to 100% and the Mortality is given as 44%. Besides, in assay [3] (dose 1 mg/kg), the “Incidence of Ventricular Fibrillation” value was found to be 0%, the “Incidence of Ventricular Tachycardia” value amounted to 43% and the Mortality was 0%.

On to `Cn1c(C(=O)N=C(N)N)cc2ccccc21` [Example 1, 1-methyl-2-indoloylguanidine hydrochloride], for which, in assay [3] (dose 0.1 mg/kg), the “Incidence of Ventricular Fibrillation” value came to 10%, the “Incidence of Ventricular Tachycardia” value amounted to 70% and the Mortality turned out to be 10%. Further, in assay [3] (dose 0.3 mg/kg), the “Incidence of Ventricular Fibrillation” value is given as 0%, the “Incidence of Ventricular Tachycardia” value is 50% and the Mortality was found to be 0%. Further, in assay [1] (setting [4]), the IC50 came to 58 nM.

Turning to `CC(C)Oc1cccc2c1cc(C(=O)NC(=N)N)n2C` [Example 58, 4-Isopropoxy-1-methy1-2-indoloylguanidine hydrochloride], the “Inhibition of Na^+/H^+ Exchanger MEC” value in assay [2] came out at 0.3 µM.

For `Cn1c(C(=O)N=C(N)N)cc2cccc(Cl)c21` [Example 8, 7-Chloro-1-methyl-2-indoloylguanidine hydrochloride], the IC50 in assay [1] (setting [4]) was 50 nM.

In the case of `Cn1c(C(=O)NC(=N)N)cc2c(F)cccc21` [Example 55, 4-Fluoro-1-methyl-2-indoloylguanidine hydrochloride], the IC50 in assay [1] (setting [4]) is 20 nM.
